Experimental findings from PMC12459184, “Design, synthesis, and bioevaluation of pyrazole-containing tubulin polymerisation inhibitors based on conformational constraint strategy” (Journal of Enzyme Inhibition and Medicinal Chemistry, 2025) are described below.

For this assay, the system named is microtubule network in PC-3 cells. Nature of the assay: Immunofluorescence assay of microtubule network. Format: cell-based, human. Conditions: 20 nM, 24 h. The protocol: To evaluate the effects of 4k and 5a on intracellular microtubule, immunofluorescence assay was carried out to observe the changes of microtubule network in cell.
PC-3 cells in logarithmic phase were harvested and seeded onto 12-well cell plates with round coverslip on the bottom of each well at a density of 3 × 10^4 cells per well, and were cultured for 24 h. […] The medium was removed, and cells were washed with PBS twice, fixed with 4% formaldehyde in PBS for 30 min, then the solution was removed. Cells were washed with PBS twice, permeabilized with 0.2% (v/v) Triton X-100 in PBS for 30 min, then the solution was removed. Cells were washed with PBS twice, blocking the cells in 5% bovine serum albumin (BSA) for 30 min. Then BSA was removed, and cells were incubated with the primary α-tubulin antibody (Santa Cruz, CA) containing 2% BSA (v/v, 1: 100) overnight at 4 °C.
The following steps were operated in dark environment. The antibody was removed, then cells were washed with PBST twice and were added FITC-conjugated anti-mouse secondary antibody diluted (1:100) with 2% BSA in PBS and incubated at room temperature for 4 h. The cells were then washed with PBST twice, stained with 4′,6-diamidino-2-phenylindole (DAPI) for 30 min at room temperature, and washed with PBS twice. The round coverslips at the bottom of wells were taken out, and the images were photographed by a confocal microscope.

As for `COc1cc2c(c(OC)c1OC)-c1ccc(OC)c(=O)cc1[C@@H](NC(C)=O)CC2` [Colchicine, reference compound], the “effect on microtubule network” value was “microtubule network was destroyed”.
